Source: US6540995B1, “Encapsulated cells producing cytochrome P450” (priority 1996, dated 2003)

Experiments:
[1] = tested on: breast cancer cells transfected with the CYP2B1 gene; details: another study; cited from earlier work
[2] = tested on: CYP2B1 expressing cells
Protocol: After five additional days the cells were trypsinised and an aliquot mixed with the same amount of 0.4% Giemsa in PBS, incubated for 1 min and the living cells counted.

[3] = tested on: breast cancer cells transfected with the CYP2B1 gene; details: another study; cited from earlier work; remark: listed apart in the source
[4] = after administration of the drug to patients (Wright et al. 1995); cited from earlier work

In the case of `O=P1(N(CCCl)CCCl)NCCCO1` (stereo not shown) [cyclophosphamide], the “effect on tumours after implantation in nude mice” value [1] is given as “tumour regression”, the “sensitivity of CYP2B1 expressing cells compared with cells not expressing CYP2B1” value [2] is given as “tenfold higher sensitivity” and the “effect on CYP2B1 transfected breast cancer cells” value [3] is given as “cell killing”.

For `O=P1(NCCCl)OCCCN1CCCl` (stereo not shown) [ifosfamide], the plasma drug concentrations [4] is listed as 100 to 500 µM.
